Assay: Inhibition of AbfD3

SMILES | IC50
OC[C@@H]1O[C@@H](Sc2ncccn2)[C@H](O)[C@H]1O | < 100 µM
OC[C@@H]1O[C@@H](Sc2nc3ccccc3s2)[C@H](O)[C@H]1O | < 100 µM
OC[C@@H]1O[C@@H](Sc2nc3ccccc3[nH]2)[C@H](O)[C@H]1O | < 100 µM

Other lines, results leading:

IC50 | SMILES
< 100 µM | OC[C@@H]1O[C@@H](Sc2nccs2)[C@H](O)[C@H]1O
< 100 µM | OC[C@@H]1O[C@@H](Sc2ccccn2)[C@H](O)[C@H]1O

Reference: ChEMBL document CHEMBL1143776, “Thioimidoyl furanosides as first inhibitors of the alpha-L-arabinofuranosidase AbfD3” (Bioorg Med Chem Lett, 2007)
